≈ marks a conversion by molar mass, not a printed value. Where “and” joins values, the source holds several entries; their conditions need not be identical. Equal values may be shown once.
What was measured:
[1] = Free radical scavenging activity (antioxidant assay); type: biochemical
Text: Evaluation of in-vitro cytotoxic potential of herbal products in human Lung cancer cell line (A549) by antioxidant assay: […] These substances may have potential as cytotoxic agents for further investigation. In an embodiment, free radical scavenging activity as per IC50 value: […]

MTT cytotoxicity assay = type: cell-based; conditions: human
Protocol: (§1) Human Lung carcinoma epithelial cell line, A549 cell line was obtained from the National Centre for Cell Sciences (NCCS, Pune). The cell line was cultured in DMEM (Himedia), supplemented with 10% fetal bovine serum (Sigma-Aldrich), 25 U/ml penicillin, and […] streptomycin (Himedia) at 37° ° C. in a water-saturated atmosphere of 95% air and 5% CO2. The experiments were repeated three times and average OD (absorbance values) were taken and plotted
8 test compounds (Wheatgrass, Ginger, Garlic, Tulsi, Green tea, Ashwagandha, 95% extract of Piperine and Turmeric) were obtained from the formulation department of Dabur Research Foundation, Sahibabad, Ghaziabad, U.P. 201010. 100 mg of the test compounds was weighed and dissolved in DMSO. After that, it was vortexed thoroughly followed by centrifugation. The clear supernatant was then used for further experimentation.
as §1, with “Cell culture Human” for “Human”, “37°” for “37° °”, “CO2.” for “CO2. The experiments were repeated three times and average OD (absorbance values) were taken and plotted”
The effect of DMSO extracts of 8 test compounds (Wheatgrass, Ginger, Garlic, Tulsi, Green tea, Ashwagandha, 95% extract of Piperine and Turmeric) on A549 human lung carcinoma epithelial cell line was observed by MTT (3-(4,5-dimethylthiazol-2-yl)-2,5-diphenyl tetrazolium bromide) assay. MTT reagent was purchased from Sigma (Darmstadt, Germany). Cells were counted on a hemocytometer and 10,000 cells/well were plated in 96 well plate in 180 μl of complete media (containing 10% of FBS).
Cells were treated with different concentrations (0.01, 0.1, 1, 10, 50, 100 μg/ml) of Wheatgrass, Ginger, Garlic, Tulsi, Green tea & Ashwagandha extracts and at concentrations (0.001, 0.01, 0.1, 1, 10 and 50 μg/ml) of 95% extract of Piperine and Turmeric for 72 hr. After the stipulated time, MTT solution (5 mg/ml) was added to each well and incubated for 3 hr. The purple-colored precipitate of formazan was dissolved in 150 μl of DMSO (Sigma-Aldrich) by proper mixing. The color absorbance of each well was recorded at 570 nm in a Bioteck microplate reader with a reference serving as blank. Then, IC50 values of DMSO extracts of 8 test compounds were calculated.
Statistical analysis MTT Data were analyzed by using Microsoft office Excel Software.

| Compound | IC 50 value (free radical scavenging) [1] [µg/mL] | % Inhibition ([1]; 1 μg/ml) [%] | % Inhibition ([1]; 10 μg/ml) | % Inhibition ([1]; 20 μg/ml) | % Inhibition ([1]; 30 μg/ml) | % Inhibition ([1]; 40 μg/ml) | % Inhibition ([1]; 50 μg/ml) | % Inhibition ([1]; 100 μg/ml) | IC50 at 72 h (MTT cytotoxicity assay) [µM] | cytotoxicity at 72 h, 0.1 µM (MTT cytotoxicity assay) [%] | cytotoxicity at 72 h, 1 µM (MTT cytotoxicity assay) [%] | cytotoxicity at 72 h, 10 µM (MTT cytotoxicity assay) [%] | cytotoxicity at 72 h, 25 µM (MTT cytotoxicity assay) [%] | cytotoxicity at 72 h, 50 µM (MTT cytotoxicity assay) [%] |
| --- | --- | --- | --- | --- | --- | --- | --- | --- | --- | --- | --- | --- | --- | --- |
| O=C1O[C@H]([C@@H](O)CO)C(O)=C1O [Ascorbic Acid] | 37.54 (≈ 213 µM) | 2.3 | 13% and 13.2% | 24% and 24.4% | 38% and 37.6% | 51% and 50.8% | 63% and 62.6% | 90% and 90.4% |  |  |  |  |  |  |
| COc1cccc2c1C(=O)c1c(O)c3c(c(O)c1C2=O)C[C@@](O)(C(=O)CO)C[C@@H]3O[C@H]1C[C@H](N)[C@H](O)[C@H](C)O1 [Doxorubicin] |  |  |  |  |  |  |  |  | 9.39 | 11.7 | 19.3 | 51 | 66.2 | 69.2 |

From US12714735B2, “Herbal composition for cancer” (priority 2024, dated 2026)
